From patent US11572341B2, “Biguanide compound and use thereof” (ImmunoMet Therapeutics Inc., priority 2014, dated 2023) come the findings set out here.

Structures are written as SMILES. Structures can show the parent of a compound that is named as a salt. Where two headings read alike, the source gives them in different places.

In one test the test system is HCT116 cells. Briefly: Inhibitory effect against cancer cell proliferation (MTT). It is filed as cell-based, human. To be noted: HCT116, MTT, 48 hours, read-out: IC50 (uM) @ HCT116. Here is the method: The formazane crystals thus formed were dissolved using dimethyl sulfoxide (DMSO) and absorbance of the solution was measured at 560 nm. After culturing for 48 hours, […] synthesized in Examples was indicated as cell viability (%) according to each treated concentration.

A further test has as its system AMPKa [pT172]. Briefly: AMPKa activation [pT172] in MCF7 cell. In kind it is cell-based.

For orientation: IC50 means the concentration needed to halve the response being measured. For `CCOC1CCN(C(=N)NC(=N)N2CCCC(C)C2)CC1` (stereo not drawn) [Example 46, N1-(3-methyl)piperidin-N5-(4-ethos)piperidine Biguanide Hydrochloride], the IC50 in the test on HCT116 cells (Homo sapiens, HCT-116) was > 100 µM. Moreover, the “AMPKa activation [pT172] (Unit/ml) @ MCF7 cell” value (shortened to “AMPKa activation [pT172]”) in the test on AMPKa [pT172] (5 uM) is 3.8 Unit/ml; with AMPKa [pT172] (10 uM) it was 3.6 Unit/ml; in the test with AMPKa [pT172] (50 uM), 5.4 Unit/ml.

For the compound `CCCc1ccccc1NC(=N)NC(=N)N.Cl` [Example 121, N1-(2-propyl)phenyl Biguanide Hydrochloride], the 50% inhibitory concentration (IC50) in the test on HCT116 cells (Homo sapiens, HCT-116) is > 100 µM. For the same compound, in the test on AMPKa [pT172] (50 uM), the “AMPKa activation [pT172]” value came to 9.0 Unit/ml.

In the case of `Cl.N=C(NC(=N)N1CCCC1)Nc1ccccc1C(F)(F)F` [Example 75, N1-pyrrolidin-N5-(2-trifluoromethyl)phenyl Biguanide Hydrochloride], in the test with HCT116 cells, the half-maximal inhibitory concentration (IC50) was > 100 µM. Also, the “AMPKa activation [pT172]” value with AMPKa [pT172] (5 uM) is on record as 3.5 Unit/ml; in the test with AMPKa [pT172] (10 uM), 3.6 Unit/ml; in the test with AMPKa [pT172] (50 uM), 5.3 Unit/ml.

Take `CN1CCN(C(=N)NC(=N)Nc2cccc(Cl)c2)CC1.Cl` [Example 29, N1-(4-methyl)piperazin-N5-(3-chloro)phenyl Biguanide Hydrochloride]: the IC50 in the test with HCT116 cells (Homo sapiens, HCT-116) is > 100 µM. The “AMPKa activation [pT172]” value is recorded as 4.0 Unit/ml in the test on AMPKa [pT172] (5 uM), 5.4 Unit/ml in the test on AMPKa [pT172] (10 uM) and 6.8 Unit/ml with AMPKa [pT172] (50 uM).

In the case of `CCOC1CCN(C(=N)NC(=N)Nc2cccc(C(F)(F)F)c2)CC1.Cl` [Example 24, N1-(4-ethoxy)piperidin-N5-(3-trifluoromethyl)phenyl Biguanide Hydrochloride], the IC50 with HCT116 cells (Homo sapiens, HCT-116) came to 11.5 µM. In addition, the “AMPKa activation [pT172]” value with AMPKa [pT172] (5 uM) is reported as 5.2 Unit/ml; with AMPKa [pT172] (10 uM) it was 4.7 Unit/ml; in the test with AMPKa [pT172] (50 uM) it was “cell death”.

Regarding `Cl.N=C(NC(=N)Nc1cccc(C(F)(F)F)c1)Nc1cccnc1` [Example 41, N1-3-pyridin-N5-(3-trifluoromethyl)phenyl Biguanide Hydrochloride], the 50% inhibitory concentration (IC50) with HCT116 cells (Homo sapiens, HCT-116) was > 100 µM. For the same compound, the “AMPKa activation [pT172]” value with AMPKa [pT172] (5 uM) came to 8.3 Unit/ml; with AMPKa [pT172] (10 uM), 10.2 Unit/ml; in the test on AMPKa [pT172] (50 uM), 14.4 Unit/ml.

For the compound `Cl.N=C(N)NC(=N)NCCc1ccc2c(c1)OCO2` [Example 143, N1-2-(benzo[d][1,3]dioxol-5-yl)ethyl Biguanide Hydrochloride], the IC50 in the test with HCT116 cells (Homo sapiens, HCT-116) stood at 124 µM. Also, the “AMPKa activation [pT172]” value is 5.5 Unit/ml with AMPKa [pT172] (5 uM), 5.7 Unit/ml in the test on AMPKa [pT172] (10 uM) and 7.2 Unit/ml with AMPKa [pT172] (50 uM).

On to `CC1CCCN(C(=N)NC(=N)NC2CCCC2)C1.Cl` (stereo not drawn) [Example 44, N1-(3-methyl)piperidin-N5-cyclopentyl Biguanide Hydrochloride], for which the 50% inhibitory concentration (IC50) in the test on HCT116 cells (Homo sapiens, HCT-116) is > 100 µM. Moreover, the “AMPKa activation [pT172]” value is reported as 4.5 Unit/ml in the test with AMPKa [pT172] (5 uM), 5.2 Unit/ml with AMPKa [pT172] (10 uM) and 14.8 Unit/ml in the test on AMPKa [pT172] (50 uM).

`C/N=C(\NCCc1ccc2c(c1)OCO2)NC(=N)N.Cl` [Example 102, N1-2-(benzo[d][1,3]dioxol-5-yl)ethyl-N2-methyl Biguanide Hydrochloride]: the 50% inhibitory concentration (IC50) with HCT116 cells (Homo sapiens, HCT-116) was > 100 µM. For the same compound, the “AMPKa activation [pT172]” value in the test on AMPKa [pT172] (5 uM) is on record as 4.8 Unit/ml; in the test on AMPKa [pT172] (10 uM) it was 2.8 Unit/ml; with AMPKa [pT172] (50 uM) it was 6.8 Unit/ml.

On to `CCCCN(C)C(=N)NC(=N)N.Cl` [Example 134, N1-methyl-N1-butyl Biguanide Hydrochloride], for which, in the test with HCT116 cells (Homo sapiens, HCT-116), the IC50 is > 100 µM. For the same compound, the “AMPKa activation [pT172]” value with AMPKa [pT172] (50 uM) amounted to 16.2 Unit/ml.

Regarding `CCCc1ccccc1NC(=N)NC(=N)N1CCCCC1.Cl` [Example 74, N1-piperidin-N5-(2-propyl)phenyl Biguanide Hydrochloride], in the test with HCT116 cells (Homo sapiens, HCT-116), the IC50 is 48.3 µM. Also, the entries for the “AMPKa activation [pT172]” value in the test with AMPKa [pT172] (5 uM), with AMPKa [pT172] (10 uM) and in the test with AMPKa [pT172] (50 uM) were 4.9 Unit/ml, 5.3 Unit/ml and 8.3 Unit/ml, respectively.

As to `Cl.N=C(N)NC(=N)Nc1ccc(C(F)(F)F)cc1` [Example 128, N1-(4-trifluoromethyl)phenyl Biguanide Hydrochloride], the half-inhibitory concentration (IC50) with HCT116 cells (Homo sapiens, HCT-116) is > 100 µM. The “AMPKa activation [pT172]” value in the test with AMPKa [pT172] (5 uM) was found to be 7.6 Unit/ml; in the test with AMPKa [pT172] (10 uM), 7.1 Unit/ml; in the test with AMPKa [pT172] (50 uM), 8.8 Unit/ml.

Take `CC1CC(C)CN(C(=N)NC(=N)Nc2ccc(OC(F)(F)F)cc2)C1.Cl` (stereo not drawn) [Example 62, N1-(3,5-dimethyl)piperidin-N5-(4-trifluoromethoxy)phenyl Biguanide Hydrochloride]: the half-inhibitory concentration (IC50) in the test with HCT116 cells (Homo sapiens, HCT-116) stood at 2.8 µM. In addition, the entries for the “AMPKa activation [pT172]” value with AMPKa [pT172] (5 uM), with AMPKa [pT172] (10 uM) and in the test with AMPKa [pT172] (50 uM) were 8.5 Unit/ml, 26.6 Unit/ml and “cell death”, respectively.
